Source: patent US20100267561A1, “HERBICIDAL PYRIDAZINONE DERIVATIVES” (priority 2007, published 2010)

Assays:
Type in all cases: in vivo
[1] = system: southern (S.) sandbur (Cenchrus echinatus); test: Test E pre-/postemergence plant response; conditions: scale 0 to 100
How it was run: (§1)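 Plant response was judged by eye relative to controls, 0 meaning no effect and 100 complete control, after 14 to 21 days under greenhouse conditions. Compound was formulated in a non-phytotoxic solvent mixture with surfactant.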

[2] = system: guineagrass (Panicum maximum); test: Test E pre-/postemergence plant response; conditions: scale 0 to 100
How it was run: as §1

[3] = system: common sowthistle (Sonchus oleraceous); test: Test E pre-/postemergence plant response; conditions: scale 0 to 100
How it was run: as §1

[4] = system: Russian thistle (Salsola kali); test: Test E pre-/postemergence plant response; conditions: Preemergence, 4 g ai/ha; scale 0 to 100
How it was run: as §1

[5] = system: common chickweed (Stellaria media); test: Test E pre-/postemergence plant response; conditions: Postemergence, scale 0 to 100
How it was run: as §1

[6] = system: quackgrass (Elytrigia repens); test: Test E pre-/postemergence plant response; conditions: scale 0 to 100
How it was run: as §1

[7] = system: Virginia (V.) dayflower (Commelina virginica); test: Test E pre-/postemergence plant response; conditions: scale 0 to 100
How it was run: as §1

[8] = system: goosegrass (Eleusine indica); test: Test E pre-/postemergence plant response; conditions: scale 0 to 100
How it was run: as §1

[9] = system: bermudagrass (Cynodon dactylon); test: Test E pre-/postemergence plant response; conditions: scale 0 to 100
How it was run: as §1

canola (Brassica rapa) = test: Test C pre-/postemergence plant response; conditions: Preemergence
How it was run: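 Formulated in a surfactant-containing non-phytotoxic solvent, compounds were tested under controlled growth conditions as preemergence and postemergence treatments. Ratings from 0 (no effect) to 100 (complete control) were assigned visually relative to controls 15 to 25 days later.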

## CCc1cc(-c2ccc(C(F)(F)F)cc2)nn1-c1c(OC(=O)OC(C)C)cnn(C)c1=O [Compound 12]
[1]; 4 g ai/ha, Postemergence
  Plant response rating, Sandbur, S.: 90
[1]; 31 g ai/ha, Preemergence
  Plant response rating, Sandbur, S.: 95
[1]; Postemergence, 8 g ai/ha
  Plant response rating, Sandbur, S.: 98
[1]; Postemergence, 31 g ai/ha
  Plant response rating, Sandbur, S.: 100
[1]; Preemergence, 4 g ai/ha
  Plant response rating, Sandbur, S.: 0
[2]; 4 g ai/ha, Postemergence
  Plant response rating, Guineagrass: 95
[2]; 31 g ai/ha, Preemergence
  Plant response rating, Guineagrass: 100
[2]; Postemergence, 8 g ai/ha
  Plant response rating, Guineagrass: 95
[2]; Postemergence, 31 g ai/ha
  Plant response rating, Guineagrass: 95
[2]; Preemergence, 4 g ai/ha
  Plant response rating, Guineagrass: 0
[3]; 4 g ai/ha, Postemergence
  Plant response rating, Sowthistle: 0
[3]; Postemergence, 8 g ai/ha
  Plant response rating, Sowthistle: 0
[3]; Postemergence, 31 g ai/ha
  Plant response rating, Sowthistle: 0
[3]; Preemergence, 4 g ai/ha
  Plant response rating, Sowthistle: 0
[4]
  Plant response rating, Thistle, Russian: 0
[5]; 4 g ai/ha
  Plant response rating, Chickweed: 0
[5]; 8 g ai/ha
  Plant response rating, Chickweed: 0
[5]; 31 g ai/ha
  Plant response rating, Chickweed: 0
[6]; 4 g ai/ha, Postemergence
  Plant response rating, Quackgrass: 20
[6]; 31 g ai/ha, Preemergence
  Plant response rating, Quackgrass: 80
[6]; Postemergence, 8 g ai/ha
  Plant response rating, Quackgrass: 30
[6]; Postemergence, 31 g ai/ha
  Plant response rating, Quackgrass: 95
[6]; Preemergence, 4 g ai/ha
  Plant response rating, Quackgrass: 0
[7]; 4 g ai/ha, Postemergence
  Plant response rating, Dayflower, V.: 0
[7]; 8 g ai/ha, Preemergence
  Plant response rating, Dayflower, V.: 0
[7]; 31 g ai/ha, Preemergence
  Plant response rating, Dayflower, V.: 0
[7]; Postemergence, 8 g ai/ha
  Plant response rating, Dayflower, V.: 0
[7]; Postemergence, 31 g ai/ha
  Plant response rating, Dayflower, V.: 0
[7]; Preemergence, 4 g ai/ha
  Plant response rating, Dayflower, V.: 0
[8]; 4 g ai/ha, Postemergence
  Plant response rating, Goosegrass: 10
[8]; 8 g ai/ha, Preemergence
  Plant response rating, Goosegrass: 65
[8]; 31 g ai/ha, Preemergence
  Plant response rating, Goosegrass: 75
[8]; Postemergence, 8 g ai/ha
  Plant response rating, Goosegrass: 30
[8]; Postemergence, 31 g ai/ha
  Plant response rating, Goosegrass: 90
[8]; Preemergence, 4 g ai/ha
  Plant response rating, Goosegrass: 25
[9]; 4 g ai/ha, Postemergence
  Plant response rating, Bermudagrass: 15
[9]; 8 g ai/ha, Preemergence
  Plant response rating, Bermudagrass: 75
[9]; 31 g ai/ha, Preemergence
  Plant response rating, Bermudagrass: 95
[9]; Postemergence, 8 g ai/ha
  Plant response rating, Bermudagrass: 70
[9]; Postemergence, 31 g ai/ha
  Plant response rating, Bermudagrass: 95
[9]; Preemergence, 4 g ai/ha
  Plant response rating, Bermudagrass: 35

## CCc1cc(-c2ccc(Cl)cc2)nn1-c1c(O)cnn(C)c1=O [Compound 21]
[1]; 16 g ai/ha, Preemergence
  Plant response rating, Sandbur, S.: 98
[1]; 31 g ai/ha, Preemergence
  Plant response rating, Sandbur, S.: 100
[1]; 62 g ai/ha, Preemergence
  Plant response rating, Sandbur, S.: 100
[1]; Postemergence, 8 g ai/ha
  Plant response rating, Sandbur, S.: 80
[1]; Postemergence, 16 g ai/ha
  Plant response rating, Sandbur, S.: 80
[1]; Postemergence, 31 g ai/ha
  Plant response rating, Sandbur, S.: 95
[1]; Postemergence, 62 g ai/ha
  Plant response rating, Sandbur, S.: 100
[2]; 16 g ai/ha, Preemergence
  Plant response rating, Guineagrass: 100
[2]; 31 g ai/ha, Preemergence
  Plant response rating, Guineagrass: 100
[2]; 62 g ai/ha, Preemergence
  Plant response rating, Guineagrass: 100
[2]; Postemergence, 8 g ai/ha
  Plant response rating, Guineagrass: 95
[2]; Postemergence, 16 g ai/ha
  Plant response rating, Guineagrass: 98
[2]; Postemergence, 31 g ai/ha
  Plant response rating, Guineagrass: 100
[2]; Postemergence, 62 g ai/ha
  Plant response rating, Guineagrass: 100
[5]; 31 g ai/ha
  Plant response rating, Chickweed: 0
[6]; 16 g ai/ha, Preemergence
  Plant response rating, Quackgrass: 50
[6]; 31 g ai/ha, Preemergence
  Plant response rating, Quackgrass: 90
[6]; 62 g ai/ha, Preemergence
  Plant response rating, Quackgrass: 95
[6]; Postemergence, 8 g ai/ha
  Plant response rating, Quackgrass: 20
[6]; Postemergence, 16 g ai/ha
  Plant response rating, Quackgrass: 35
[6]; Postemergence, 31 g ai/ha
  Plant response rating, Quackgrass: 40
[6]; Postemergence, 62 g ai/ha
  Plant response rating, Quackgrass: 80
[8]; 8 g ai/ha, Preemergence
  Plant response rating, Goosegrass: 95
[8]; 16 g ai/ha, Preemergence
  Plant response rating, Goosegrass: 100
[8]; 31 g ai/ha, Preemergence
  Plant response rating, Goosegrass: 100
[8]; 62 g ai/ha, Preemergence
  Plant response rating, Goosegrass: 100
[8]; Postemergence, 8 g ai/ha
  Plant response rating, Goosegrass: 75
[8]; Postemergence, 16 g ai/ha
  Plant response rating, Goosegrass: 80
[8]; Postemergence, 31 g ai/ha
  Plant response rating, Goosegrass: 90
[8]; Postemergence, 62 g ai/ha
  Plant response rating, Goosegrass: 98
[9]; 8 g ai/ha, Preemergence
  Plant response rating, Bermudagrass: 40
[9]; 16 g ai/ha, Preemergence
  Plant response rating, Bermudagrass: 90
[9]; 31 g ai/ha, Preemergence
  Plant response rating, Bermudagrass: 95
[9]; 62 g ai/ha, Preemergence
  Plant response rating, Bermudagrass: 100
[9]; Postemergence, 8 g ai/ha
  Plant response rating, Bermudagrass: 40
[9]; Postemergence, 16 g ai/ha
  Plant response rating, Bermudagrass: 50
[9]; Postemergence, 31 g ai/ha
  Plant response rating, Bermudagrass: 65
[9]; Postemergence, 62 g ai/ha
  Plant response rating, Bermudagrass: 75
Canola (Brassica rapa); 8 g ai/ha, scale 0 to 100 (0 no effect, 100 complete control)
  Plant response rating, Canola: 0
Canola (Brassica rapa); 16 g ai/ha, scale 0 to 100 (0 no effect, 100 complete control)
  Plant response rating, Canola: 0
Canola (Brassica rapa); 31 g ai/ha, scale 0 to 100 (0 no effect, 100 complete control)
  Plant response rating, Canola: 0
Canola (Brassica rapa); 62 g ai/ha, scale 0 to 100, 0 no effect, 100 complete control
  Plant response rating, Canola: 0
